Laboratory results taken from PMC10266261, “A High-Throughput Approach to Identify Specific Neurotoxicants / Developmental Toxicants in Human Neuronal Cell Function Assays” (ALTEX, 2018).
Where two headings read alike, the source gives them in different places.

What was measured:
LUHMES cells = experiment: cells; type: cell-based, human; details: for classification / outcome after hit confirmation or re-testing (EC50 prediction model): EC50 ratio V/NA ≥ 4 specific, < 4 cytotoxic; for classification in the NeuriTox screen: hit = NA decreased at concentrations not affecting viability
Experimental: For the NeuriTox test (= UKN4), LUHMES (Lund human mesencephalic) cells were characterized and cultured as described in detail earlier ([Krug et al., 2013]; [Lotharius et al., 2005]; [Scholz et al., 2011]). Briefly, cells were maintained in proliferation medium (PM: AdvDMEM/F12 supplemented with 2 mM glutamine, 1x N2 supplement and 40 ng/ml fibroblast growth factor-2) in PLO/fibronectin coated flasks (50 μg/ml poly-L-ornithine (PLO) and 1 μg/ml fibronectin). For differentiation, cells were seeded at a density of 46,000 cells/cm^2 in PM. After 24 h, they were switched to differentiation medium (DM) containing AdvDMEM/F12 supplemented with 2 mM glutamine, 1x N2 supplement, 2.25 μM tetracycline, 1 mM dibutyryl 3’,5’-cyclic adenosine monophosphate (cAMP), and 2 ng/ml recombinant human glial cell derived neurotrophic factor (GDNF).
For the NeuriTox test, LUHMES cells were differentiated for 48 h and seeded into 96 well plates at a density of 100,000 cells/cm^2 in a volume of 90 μl DM without cAMP and GDNF. Treatment was initiated applying 10 μl of a 10x concentrated treatment solution one hour after seeding. At 24 h after treatment, staining mix (SM) was applied (final concentrations: 1 μg/ml H-33342, 1 μM calcein-AM).
(§1) Image acquisition was performed with an ArrayScan VTI HCS (high content imaging) microscope (Cellomics, Waltham, MA, USA).
The procedure was applied as detailed earlier ([Hoelting et al., 2016]; [Stiegler et al., 2011]). After automated imaging, an algorithm was applied that identified the neuronal somata (based on identified nuclei) and subtracted the somatic area from the total neuronal area to obtain the neurite area (NA), i.e., the number of pixels per field covered by neurites. Viability analysis was performed on the same pictures using combined information from H-33342 and calcein channels. Cells with normal-sized nuclei that were calcein-positive were counted as live cells, whereas H-33342 single-positive cells were counted as dead cells. Viability (V) was expressed as percentage of live cells relative to control.
(§2) Neurite area (NA) and viability (V) were always expressed as percentage of the DMSO control. In a first step, matched technical replicates were averaged. […] Curve fitting was performed employing a 4-parameter log-logistic function with least squares fit. The upper asymptote of the fit was forced to 100%, the lower asymptote was variable. The variation of DMSO controls was calculated from pooled values of DMSO controls over several experiments.
For calculation of the benchmark concentration values (BMC), a benchmark response (BMR) of three standard deviations of DMSO solvent controls of all assay plates (= “3 x noise level”) was used. […] To identify specific effects on neurite outgrowth, the EC50 ratio of EC50(viability)/EC50(neurite area) was calculated. The NeuriTox test system has a specificity threshold ratio of 4, the PeriTox test system has one of 3 ([Hoelting et al., 2016]; [Krug et al., 2013]).
If V was not affected at the highest tested concentration (HTC), then 4 x HTC was used as surrogate EC50(V) (marked with ♦; for EC25 calculation, the HTC was doubled in this case) ([Krug et al., 2013]).
For the actual screening procedure, a defined workflow was established that contained several pre-determined decision points. All compounds were tested at 1:1000 dilutions of their stock concentration, and at subsequent 3-fold dilution levels. For most compounds, the stock was 20 mM, so that the test concentrations were 20 μM, 6.7 μM, 2.2 μM, 0.7 μM, 0.25 μM, 82 nM, 27 nM, 9 nM, 3 nM, and 1 nM. For 2,2’,4,4’,5,5’-hexabromodiphenyl-ether, chrysene, dibenz(a,h)anthracene, bis(tributyltin) oxide, benzo[g,h,i]perylene, and 2,3,7,8-tetrachlorodibenzo-p-dioxin lower stock concentrations were used.

[1] = test system: immature human dorsal root ganglia neurons; experiment: cells; type: cell-based; details: for classification in the PeriTox screen: three independent screen runs, up to 20 μM; for EC50: Homo sapiens, Neuron
Experimental: The PeriTox test (= UKN5) is based on cells differentiated from the H9 human embryonic stem cell (hESC) line (WA09 line), which was obtained from WiCell (Madison, WI, USA). The import of cells and the experiments were authorized under license no. 170–79-1–4-27 (Robert Koch Institute, Berlin, Germany).
After one hour, 25 μl PDM with 4x concentrated serial dilutions of the test compounds was added to the cells. At 23 h after treatment, the cells were stained with SM and incubated for one additional hour at 37°C.
as §1
After automated imaging, an algorithm was applied that identified the neuronal somata (based on identified nuclei) and subtracted the somatic area from the total neuronal area to obtain the neurite area (NA), i.e., the number of pixels per field covered by neurites. […] Viability (V) was expressed as percentage of live cells relative to control.
as §2
For calculation of the benchmark concentration values (BMC), a benchmark response (BMR) of three standard deviations of DMSO solvent controls of all assay plates (= “3 x noise level”) was used. […] To identify specific effects on neurite outgrowth, the EC50 ratio of EC50(viability)/EC50(neurite area) was calculated.
This method uses human immature dorsal root ganglia neurons (iDRG) that are produced from pluripotent stem cells that are still in a phase of neurite growth. Like in the NeuriTox assay, exposure to toxicants in this test is for 24 h, and readouts for viability (V) and neurite area (NA) are also conducted in a similar way (Fig. 7A).

cardiomyocytes = details: specific = cardio-physiologic parameters affected after 30 min at three-fold lower concentration than viability and no effect on viability after 24 h; ref Sirenko et al., 2017; cited from earlier work
[2] = screen data, 24 h exposure, up to 20 μM, read-out: EC50(NA), neurite area
[3] = screen data, 24 h exposure, up to 20 μM, read-out: EC50(V), viability
[4] = screen data, specificity threshold 4
[5] = Homo sapiens, 24 h, read-out: EC50(NA), neurite area
[6] = 24 h, read-out: EC50(NA), neurite area
[7] = read-out: EC50(V), viability, surrogate marked ♦

[CH3][Hg][Cl] [Methylmercury (II) chloride]
EC50 (LUHMES cells; [2]): 90 nM
EC50 (LUHMES cells; [3]): 160 nM
ratio EC50(V)/EC50(NA) (LUHMES cells; [4]): 1.8
classification in the PeriTox screen [1]: active hit compounds

Brc1ccc(Oc2cc(Br)c(Br)cc2Br)c(Br)c1 [PBDE, 2,2’,4,4’,5’-pentabromodiphenylether]
classification / outcome after hit confirmation or re-testing (EC50 prediction model) (LUHMES cells): unspecific cytotoxicants

C=C(C)[C@H]1Cc2c(ccc3c2O[C@@H]2COc4cc(OC)c(OC)cc4[C@@H]2C3=O)O1 [Rotenone]
classification in the cardiotoxicity test method (cardiomyocytes): generally cytotoxic
EC50 (LUHMES cells; [5]): 500 nM
EC50 (LUHMES cells; Homo sapiens, read-out: EC50(V), viability, surrogate marked ♦): 40000 nM
classification in the NeuriTox screen (LUHMES cells; up to 20 μM, 24 h): active hit compounds
EC50 [1, 6]: 50 nM
EC50 [1, 7]: 16500 nM
ratio EC50(V)/EC50(NA) ([1]; hit confirmation, ≥ 3 = specific hit): 330
classification in the PeriTox screen [1]: active hit compounds

Brc1ccc(Oc2ccc(Br)cc2Br)c(Br)c1 [TBDE, 2,2’,4,4’-tetrabromodiphenylether]
classification / outcome after hit confirmation or re-testing (EC50 prediction model) (LUHMES cells): unspecific cytotoxicants

CCN(CC)C(=S)SSC(=S)N(CC)CC [Tetraethylthiuram disulfide]
EC50 (LUHMES cells; [2]): 3700 nM
EC50 (LUHMES cells; [3]): 2900 nM
ratio EC50(V)/EC50(NA) (LUHMES cells; [4]): 0.8

O=P(Oc1ccccc1)(Oc1ccccc1)Oc1ccccc1 [Triphenyl phosphate]
classification / outcome after hit confirmation or re-testing (EC50 prediction model) (LUHMES cells): clearly non-toxic at concentrations up to 20 μM
EC50 (LUHMES cells; Homo sapiens, read-out: toxicity EC50): > 200000 nM

CCCC(CCC)C(=O)O [VPA, valproic acid]
classification / outcome after hit confirmation (EC50 ratio viability/neurite area ≥ 3) [1]: cytotoxic

CC(C)[C@@H]1NC(=O)[C@H](C)OC(=O)[C@@H](C(C)C)NC(=O)[C@@H](C(C)C)OC(=O)[C@H](C(C)C)NC(=O)[C@H](C)OC(=O)[C@@H](C(C)C)NC(=O)[C@@H](C(C)C)OC(=O)[C@H](C(C)C)NC(=O)[C@H](C)OC(=O)[C@@H](C(C)C)NC(=O)[C@@H](C(C)C)OC1=O [Valinomycin]
classification in the cardiotoxicity test method (cardiomyocytes): generally cytotoxic
EC50 (LUHMES cells; [5]): 10 nM
EC50 (LUHMES cells; Homo sapiens, 24 h, read-out: EC50(V), viability): 6200 nM
EC50 (LUHMES cells; Homo sapiens, read-out: EC50 for reduction of neurite area): 10 nM
ratio EC50(V)/EC50(NA) (LUHMES cells; hit confirmation, ≥ 4 = specific (developmental) neurotoxicant): 620
classification by BMC ratio (BMCV/BMCNA) (LUHMES cells; screen data, threshold changed to 2): specific DNT-compounds
classification by BMC ratio (BMCV/BMCNA) (LUHMES cells; screen data, threshold set at 3.16): cytotoxic
classification in the NeuriTox screen (LUHMES cells; up to 20 μM, 24 h): active hit compounds
EC50 [1, 6]: 3 nM
EC50 ([1]; read-out: EC50(NA), neurite area): 20 nM
EC50 [1, 7]: 200 nM
classification in the PeriTox screen [1]: active hit compounds

CCC[CH2][Sn]([CH2]CCC)([CH2]CCC)[O][Sn]([CH2]CCC)([CH2]CCC)[CH2]CCC [bis(tributyltin)oxide]
classification in the NeuriTox screen (LUHMES cells; up to 20 μM, 24 h): cytotoxic

O=C1N[C@@H]2C(=C[C@H](O)[C@@H](O)[C@H]2O)c2cc3c(c(O)c21)OCO3 [narciclasine]
neurite area vs solvent control (LUHMES cells; 50 nM, 24 h, positive control): significantly reduced

CC(C)(C)C(O)(CCc1ccc(Cl)cc1)Cn1cncn1 (stereo not drawn) [tebuconazole]
EC50 (LUHMES cells; Homo sapiens, hit confirmation / re-testing, adjusted concentration range, 24 h, read-out: EC50(NA), neurite area): 142000 nM
EC50 (LUHMES cells; Homo sapiens, re-testing, extended concentration range, read-out: toxicity EC50): 238000 nM
